# Laboratory results from patent US10174029B2, “Pyrimidine-2,4-diamine derivatives for treatment of cancer” (THOMAS HELLEDAYS STIFTELSE FOR MEDICINSK FORSKNING, priority 2012, dated 2019).
# Target: MTH1 (Homo sapiens, UniProt P36639)
# Test: MTH1 enzymatic assay and IC50 value determination (malachite green)
# Type: biochemical
# Conditions: MTH1 4.8 nM, dGTP 100 μM, 15 minutes at 22° C.; group: between 2 μM and 10 μM
# Protocol: MTH1 Enzymatic Assay and IC50 Value Determination
# MTH1 catalyzes the hydrolysis of dGTP to dGMP and PPi. By coupling the reaction to pyrophosphatase added in excess PPi is converted to Pi that can be detected by using the malachite green assay reagent. Briefly, for IC50 value determination the compound to be analyzed is diluted in assay buffer in a 1:3 dilution series generating 12 different compound concentrations giving a final DMSO concentration of 1% in the assay well. MTH1 diluted in assay buffer (100 mM Tris-acetate, 40 mM NaCl, 10 mM magnesium acetate, 1 mM DTT and 0.005% Tween 20) fortified with E. coli pyrophosphatase (0.8 U/ml) is added to a final concentration of 4.8 nM. dGTP diluted in assay buffer is added to a final concentration of 100 μM. The reaction mixture is incubated with shaking for 15 minutes at 22° C. To 100 μl reaction mixture is 25 μl Malachite green assay regent (0.095% Malachite green in 17% H2SO4, 1.5% Ammonium molybdate, 0.17% Tween 20) added followed by incubation with shaking for 15 minutes at 22° C.
# The absorbance of the assay plate is read at 630 nm using an EnVision Multilabel plate reader. The IC50 value is determined by fitting a dose response curve to the data points using nonlinear regression analysis and the equation Y=Bottom+(Top−Bottom)/(1+10^((Log IC50−X)*HillSlope)), where Y is the read absorbance at 630 nm and X is log [compound].
row,IC50 [µM],Structure (SMILES)
1,2 to 10,"Cc1nnc(CNc2cc(-c3cccc(C)c3C)nc(N)n2)[nH]1 [Example 399, 6-(2,3-Dimethylphenyl)-4-N-[(5-methyl-4H-1,2,4-triazol-3-yl)methyl]pyrimidine-2,4-diamine]"
2,2 to 10,"Cc1cccc(-c2cc(NC3CCN(C(=O)OC(C)(C)C)CC3)nc(N)n2)c1C [Example 237, tert-Butyl 4-((2-amino-6-(2,3-dimethylphenyl)pyrimidin-4-yl)amino)piperidine-1-carboxylate]"
3,2 to 10,"Cc1ccc(S(=O)(=O)n2cc(-c3cc(NC(C)(C)C)nc(N)n3)c3ccccc32)cc1 [Example 161, 4-N-tert-butyl-6-[1-(4-methylbenzenesulfonyl)-1H-indol-3-yl]pyrimidine-2,4-diamine]"

# Same assay, conditions: MTH1 4.8 nM, dGTP 100 μM, 15 minutes at 22° C.; group: less than 200 nM
row,Structure (SMILES),IC50 [µM]
1,"Cc1cccc(-c2cc(NCc3cnc(Cl)cn3)nc(N)n2)c1C [Example 254, 4-N-[(5-chloropyrazin-2-yl)methyl]-6-(2,3-dimethylphenyl)pyrimidine-2,4-diamine]",< 0.2
2,"CNc1cc(-c2cc(C(C)C)ccc2OC)nc(N)n1 [Example 198, 6-[2-methoxy-5-(propan-2-yl)phenyl]-4-N-methylpyrimidine-2,4-diamine]",< 0.2
3,"Cc1ccc(S(=O)(=O)n2cc(-c3cc(NCC4CC4)nc(N)n3)c3ccccc32)cc1 [Example 165, 4-N-(cyclopropylmethyl)-6-[1-(4-methylbenzenesulfonyl)-1H-indol-3-yl]pyrimidine-2,4-diamine]",< 0.2
4,"Cc1cccc(-c2cc(NCCCCNS(=O)(=O)c3ccc(S(C)(=O)=O)cc3)nc(N)n2)c1C [Example 424, N-(4-{[2-amino-6-(2,3-dimethylphenyl)pyrimidin-4-yl]amino}butyl)-4-methanesulfonylbenzene-1-sulfonamide]",< 0.2
5,"Cc1cccc(-c2cc(NCCCNS(=O)(=O)c3ccc(S(N)(=O)=O)cc3)nc(N)n2)c1C [Example 444, 1-N-(3-{[2-amino-6-(2,3-dimethylphenyl)pyrimidin-4-yl]amino}propyl)benzene-1,4-disulfonamide]",< 0.2
6,"CNc1cc(-c2cc(Cl)c3c(c2)OCO3)nc(N)n1 [Example 97, 6-(7-chloro-2H-1,3-benzodioxol-5-yl)-4-N-methylpyrimidine-2,4-diamine]",< 0.2
7,"CNc1cc(-c2ccc(F)c(C)c2C)nc(N)n1 [Example 260, 6-(4-fluoro-2,3-dimethylphenyl)-4-N-methylpyrimidine-2,4-diamine]",< 0.2
8,"CNc1cc(-c2ccc(C=O)cc2)nc(N)n1 [Example 108, 4-[2-amino-6-(methylamino)pyrimidin-4-yl]benzaldehyde]",< 0.2
9,"C#CCNc1cc(-c2cccc(Cl)c2C)nc(N)n1 [Example 429, 6-(3-chloro-2-methylphenyl)-4-N-(prop-2-yn-1-yl)pyrimidine-2,4-diamine]",< 0.2
10,"Nc1nc(NCc2ccccc2)cc(-c2ccccc2)n1 [Example 11, 4-N-benzyl-6-phenylpyrimidine-2,4-diamine]",< 0.2
11,"CCNc1cc(-c2cn(S(=O)(=O)c3ccc(C)cc3)c3ccccc23)nc(N)n1 [Example 159, 4-N-ethyl-6-[1-(4-methylbenzenesulfonyl)-1H-indol-3-yl]pyrimidine-2,4-diamine]",< 0.2
12,"Cc1cccc(-c2cc(NCCc3ccc(S(N)(=O)=O)cc3)nc(N)n2)c1C [Example 330, 4-(2-{[2-Amino-6-(2,3-dimethylphenyl)pyrimidin-4-yl]amino}ethyl)benzene-1-sulfonamide]",< 0.2
13,"CNc1cc(-c2cc(Cl)ccc2Cl)nc(N)n1 [Example 209, 6-(2,5-dichlorophenyl)-4-N-methylpyrimidine-2,4-diamine]",< 0.2
14,"Cc1cccc(-c2cc(NCC3CC3)nc(N)n2)c1C [Example 164, 4-N-(cyclopropylmethyl)-6-(2,3-dimethylphenyl)pyrimidine-2,4-diamine]",< 0.2
15,"Cc1cccc(-c2cc(NC3CCC3)nc(N)n2)c1C [Example 151, 4-N-cyclobutyl-6-(2,3-dimethylphenyl)pyrimidine-2,4-diamine]",< 0.2
16,"Cc1cccc(-c2cc(NCC3CCCN(c4ncccn4)C3)nc(N)n2)c1C (centres unmarked) [Example 350, 6-(2,3-Dimethylphenyl)-4-N-{[1-(pyrimidin-2-yl)piperidin-3-yl]methyl}pyrimidine-2,4-diamine]",< 0.2

# The remaining lines, values ahead:
row,IC50 [µM],Structure (SMILES)
1,< 0.2,"C=CS(=O)(=O)Nc1cccc(-c2cc(NC)nc(N)n2)c1 [Example 313, N-{3-[2-amino-6-(methylamino)pyrimidin-4-yl]phenyl}ethene-1-sulfonamide]"
2,< 0.2,"Cc1cccc(-c2cc(NCc3ccc4cn[nH]c4c3)nc(N)n2)c1C [Example 252, 6-(2,3-dimethylphenyl)-4-N-(1H-indazol-6-ylmethyl)pyrimidine-2,4-diamine]"
3,< 0.2,"Cc1ccc2[nH]c(C)c(CCNc3cc(-c4cccc(C)c4C)nc(N)n3)c2c1 [Example 249, 4-N-[2-(2,5-dimethyl-1H-indol-3-yl)ethyl]-6-(2,3-dimethylphenyl)pyrimidine-2,4-diamine]"
4,< 0.2,"Cc1ncsc1CCNc1cc(-c2cccc(Cl)c2C)nc(N)n1 [Example 406, 6-(3-chloro-2-methylphenyl)-4-N-[2-(4-methyl-1,3-thiazol-5-yl)ethyl]pyrimidine-2,4-diamine]"
5,< 0.2,"CNc1cc(-c2ccc(F)c(Cl)c2)nc(N)n1 [Example 80, 6-(3-chloro-4-fluorophenyl)-4-N-methylpyrimidine-2,4-diamine]"
6,< 0.2,"CNc1cc(-c2ccc(NS(C)(=O)=O)cc2)nc(N)n1 [Example 46, N-{4-[2-amino-6-(methylamino)pyrimidin-4-yl]phenyl}methanesulfonamide]"
7,< 0.2,"CNc1cc(-c2ccc(C#N)cc2)nc(N)n1 [Example 51, 4-[2-amino-6-(methylamino)pyrimidin-4-yl]benzonitrile]"
8,< 0.2,"Nc1nc(NC2CCC2)cc(-c2cccc(Cl)c2Cl)n1 [Example 64, 4-N-cyclobutyl-6-(2,3-dichlorophenyl)pyrimidine-2,4-diamine]"
9,< 0.2,"Cc1c(Cl)cccc1-c1cc(NC2CC3CCC2C3)nc(N)n1 (centres unmarked) [Example 244, 4-N-{bicyclo[2.2.1]heptan-2-yl}-6-(3-chloro-2-methylphenyl)pyrimidine-2,4-diamine]"
10,< 0.2,"Cc1c(F)ccc(-c2cc(NCCc3ccc(S(C)(=O)=O)cc3)nc(N)n2)c1C [Example 430, 6-(4-fluoro-2,3-dimethylphenyl)-4-N-[2-(4-methanesulfonylphenyl)ethyl]pyrimidine-2,4-diamine]"
11,< 0.2,"CNc1cc(-c2cc(Cl)c(OC)cc2Cl)nc(N)n1 [Example 192, 6-(2,5-dichloro-4-methoxyphenyl)-4-N-methylpyrimidine-2,4-diamine]"
12,< 0.2,"Cc1cccc(-c2cc(NCCOc3ccc(C#N)cc3)nc(N)n2)c1C [Example 335, 4-(2-{[2-Amino-6-(2,3-dimethylphenyl)pyrimidin-4-yl]amino}ethoxy)benzonitrile]"
13,< 0.2,"CNc1cc(-c2cc(F)ccc2C)nc(N)n1 [Example 202, 6-(5-fluoro-2-methylphenyl)-4-N-methylpyrimidine-2,4-diamine]"
14,< 0.2,"CCCCCNc1cc(-c2cccc(C)c2C)nc(N)n1 [Example 135, 6-(2,3-dimethylphenyl)-4-N-pentylpyrimidine-2,4-diamine]"
15,< 0.2,"CCCNc1cc(-c2ccccc2)nc(N)n1 [Example 4, 6-phenyl-4-N-propylpyrimidine-2,4-diamine]"
16,< 0.2,"Cc1cccc(-c2cc(NCc3ccc(N(C)C)cc3)nc(N)n2)c1C [Example 346, 4-N-{[4-(Dimethylamino)phenyl]methyl}-6-(2,3-dimethylphenyl)pyrimidine-2,4-diamine]"
17,< 0.2,"Nc1nc(NCCc2ccc(Cl)cc2)cc(-c2cccc3[nH]ccc23)n1 [Example 231, 4-N-[2-(4-chlorophenyl)ethyl]-6-(1H-indol-4-yl)pyrimidine-2,4-diamine]"
18,< 0.2,"CNc1cc(-c2ccc(OCC3CCN(C(=O)OC(C)(C)C)CC3)c(COC)c2)nc(N)n1 [Example 256, tert-butyl 4-{4-[2-amino-6-(methylamino)pyrimidin-4-yl]-2-(methoxymethyl)phenoxymethyl}piperidine-1-carboxylate]"
19,< 0.2,"Cc1cccc(-c2cc(NCCc3ccncc3)nc(N)n2)c1C [Example 334, 6-(2,3-Dimethylphenyl)-4-N-[2-(pyridin-4-yl)ethyl]pyrimidine-2,4-diamine]"
20,< 0.2,"Cc1ccccc1-c1cc(NCCc2ccc(Cl)cc2)nc(N)n1 [Example 264, 4-N-[2-(4-chlorophenyl)ethyl]-6-(2-methylphenyl)pyrimidine-2,4-diamine]"
21,< 0.2,"Cc1c(-c2cc(NCCc3ccc(S(N)(=O)=O)cc3)nc(N)n2)ccc(Cl)c1Cl [Example 428, 4-(2-{[2-amino-6-(3,4-dichloro-2-methylphenyl)pyrimidin-4-yl]amino}ethyl)benzene-1-sulfonamide]"
22,< 0.2,"CC1CCN(Cc2cccc(CNc3cc(-c4cccc(Cl)c4Cl)nc(N)n3)c2)CC1 [Example 300, 6-(2,3-Dichlorophenyl)-4-N-({3-[(4-methylpiperidin-1-yl)methyl]phenyl}methyl)-pyrimidine-2,4-diamine]"
